Source: patent US8080529B2, “Macrolides with anti-inflammatory activity” (Glaxo Group Limited, priority 2005, dated 2011)
Like-named read-outs stand apart in the source and are kept apart here.

Experiments:
granulocytes [1] = format: in vitro ADME; details: human, 180 min, 10 μM
Description: (§1) Granulocytes were obtained from heparinized whole blood using density gradiant centrifugation. Erythrocytes were sedimented on 3% dextran T-500 (Amersham Pharmacia Biotech AB, Uppsala, Sweden). Leukocytes were centrifuged on Ficoll (Amersham Pharmacia Biotech AB, Uppsala, Sweden) for 35 min at 600 g at 20° C. The pellet of granulocytes was cleared from remaining erythrocytes by a brief hypotonic lysis.
7.5×10^6 granulocytes, isolated as described above, were suspended in 3 mL of RPMI 1640 (Institute of Immunology, Croatia) containing 10 μM of tested macrolide. Samples were incubated at 37° C. for 180 min. Following incubation, the samples were centrifuged through the layer of Poly(dimethylsiloxane-co-diphenylsiloxane), dihydroxy terminated-silicone oil (Aldrich Chemical Company, Milwaukee, USA). The pellet was resuspended in 0.5% Triton X-100 (Sigma, St. Louis, USA) in deionized water (MilliQ, Millipore Corporation, Bedford, USA). The suspension was sonicated, proteins were precipitated with acetonitrile, and the concentration of macrolide in the supernatants was determined by liquid chromatography-mass spectrometry (LC-MS).
Intracellular concentrations of the test compounds were calculated from the mean cell number recovered after centrifuging through silicone oil. According to the literature, about 1 million neutrophils is considered to have a volume of 0.24 μL (Vazifeh et al., Antimicrob Agents Chemo. 1997; 41: 2099-2107). To estimate the extent of macrolide accumulation, the intracellular to extracellular concentration ratio (I/E) was calculated, where E (due to a large volume of incubation medium) was taken as constant (10 μM). Results are expressed relative to azithromycin according to the following equation: % of azithromycin uptake =(I/E of a substance/I/E of azithromycin)×100. I/E values obtained for azithromycin were 164±10.

neutrophils = test: Lung neutrophilia induced by bacterial lipopolysaccharide in male BALB/cJ mice: cells in BALF and lung tissue; format: in vivo; details: 5 mg i.p.; 24 hours after LPS
Description: (§2) Male BALB/cJ mice (Iffa Credo, France), with average weight 30 g were randomly grouped (n=7 in testing group, 8 in positive control, 7 in negative control). Mice were administered intraperitoneally (i.p.) a single dose of 5 or 2.5 mg of test compound. Two hours after administration, 2 μg of bacterial lipopolysaccharide (LPS), dissolved in PBS in a volume of 60 μL, was intranasally administered to all experimental groups except the negative control group, which received the same volume (60 μL) of vehicle PBS. Animals were sacrificed approximately 24 hours after application of LPS in order to obtain bronchoalveolar lavage fluid (BALF), which was used to determine concentrations of IL-6 and TNF-α, absolute number of cells, and the percentage of neutrophils in BALF. Results are expressed as percentage of decrease of total cell number, relative number of neutrophils, and TNF-α, and IL-6 concentration in BALF of treated animals compared to positive control (LPS stimulated, but untreated animals).
(§3) Results are expressed as percentage of decrease of total cell number, relative number of neutrophils, and TNF-alpha and IL-6 concentration in BALF of treated animals compared to positive control (LPS stimulated, but untreated animals).
Besides accumulation of inflammatory cells in BALF, the extent and anatomic site of pulmonary inflammation induced by LPS was assessed 24 hours after PBS or LPS exposure. Accumulation of granulocytes and mononuclear cells in peribronchial (PB) and perivascular (PV) lung tissue areas and in alveolar spaces was monitored following sacrifice of the animals.

TNF-α = test: Lung neutrophilia induced by bacterial lipopolysaccharide in male BALB/cJ mice: TNF-α in BALF; format: in vivo; details: 5 mg i.p.; 24 hours after LPS
Description: as §2, §3

IL-6 = test: Lung neutrophilia induced by bacterial lipopolysaccharide in male BALB/cJ mice: IL-6 in BALF; format: in vivo; details: 5 mg i.p.; 24 hours after LPS
Description: as §2, §3

IL-2 = test: Inhibition of IL-2 production by PHA-stimulated human PBMC in vitro; format: cell-based; details: Homo sapiens, 72 h, 3 days, read-out: Percentage of inhibition of IL-2 production
Description: (§4) Heparinized peripheral blood was obtained from healthy donors, and peripheral blood mononuclear cells (PBMC) were isolated by Histopaque 1077 (Sigma, USA) density centrifugation at 400×g for 30 minutes. Collected PBMC were centrifuged in plasma at 400×g for 10 min, resuspended and washed in RPMI 1640 (Institute of Immunology, Croatia) by centrifugation.
(§5) Peripheral blood mononuclear cells (PBMC), isolated as described above, were seeded in a 48-well plate at a concentration of 1×10^6 cells per well in the RPMI culture medium described above. Cells were stimulated with 10 μg/mL phytohaemagglutinin (PHA) (Sigma, USA) and incubated at 37° C., 5% CO2 in 90% humidity with tested compounds (10 and 50 μM) for 3 days. Cytokine concentrations were determined in supernatants by sandwich ELISA, using capture and detection antibodies (R&D, USA) according to the manufacturer's recommendations.
(§6) Inhibition (as percentage) was calculated using the following formula: % inhibition=(1−concentration of cytokines in sample/concentration of cytokines in positive control)×100.
(§7) The positive control refers to LPS-, PMA- or zymosan-stimulated samples that were not treated with test compounds.

IL-5 = test: Inhibition of IL-5 production by PHA-stimulated human PBMC in vitro; format: cell-based; details: Homo sapiens, 72 h, 3 days, read-out: Percentage of inhibition of IL-5 production
Description: as §4, §5, §6, §7

granulocytes [2] = test: Inhibition of degranulation of granulocytes (free neutrophil elastase activity); format: cell-based, human; details: Homo sapiens, Neutrophil, read-out: Percentage of inhibition of degranulation of granulocytes; for inhibition at 10 µM: compound 10 μM; for inhibition at 50 µM: compound 50 μM
Description: as §1
1×10^6 granulocytes, isolated as described above, were resuspended in RPMI-1640 medium (Institute of Immunology, Croatia), and were incubated with 10 or 50 μM of test compound together with cytochalasine B (5 μg/mL) for 2 h at 37° C. Degranulation then was induced by the addition of 0.1 μM fMLP (Sigma, USA) or 0.5 μM A23187 (Calbiochem, USA). The activity of free neutrophil elastase was determined with a chromogenic substrate specific for human neutrophil elastase, such as N-(methoxysuccinyl)-L-alanyl-L-alanyl-L-prolyl-L-valine 4-nitroanilide (Sigma Chemical Company, St Louis, Mo., USA). Elastase activity, as a marker of primary granules, was assessed in supernatant using a spectrophotometer at an absorbance of 405 nm.
Results are expressed as the percent of inhibition of degranulation in unstimulated cells, and in stimulated cells treated with fMLP or A23187.

Row | Structure (SMILES) | Uptake (% azithromycin) (granulocytes [1]) | % decrease of neutrophils in BALF (neutrophils) [%] | % decrease of total cell no. in BALF (neutrophils) [%] | Percentage of decrease of TNF-α concentration in BALF (TNF-α) [%] | Percentage of decrease of IL-6 concentration in BALF (IL-6) [%] | inhibition at 10 µM (IL-2) [%] | inhibition at 50 µM (IL-2) [%] | inhibition at 10 µM (IL-5) [%] | inhibition at 50 µM (IL-5) [%] | inhibition at 10 µM (granulocytes [2]; A23187 0.5 μM) [%] | inhibition at 50 µM (granulocytes [2]; A23187 0.5 μM) [%] | inhibition at 10 µM (granulocytes [2]; fMLP 0.1 μM) [%] | inhibition at 50 µM (granulocytes [2]; fMLP 0.1 μM) [%]
1 | CC[C@H]1OC(=O)[C@H](C)[C@@H](O[C@H]2C[C@@](C)(OC)[C@@H](OC(=O)CCN(CC)CC)[C@H](C)O2)[C@H](C)[C@@H](O[C@@H]2O[C@H](C)C[C@H](N(C)C)[C@H]2O)[C@](C)(OC)C[C@@H](C)NC(=O)[C@H](C)[C@@H](O)[C@]1(C)O [Example 3, 4″-O-(3-Diethylamino-Propionyl)-6-O-methyl-8a-aza-8a-homoerythromycin A] | 15 |  |  |  |  |  |  |  |  |  |  |  | 
2 | CC[C@H]1OC(=O)[C@H](C)[C@@H](O[C@H]2C[C@@](C)(OC)[C@@H](OC(=O)CCN(CC)CC)[C@H](C)O2)[C@H](C)[C@@H](O[C@@H]2O[C@H](C)C[C@H](N(C)C)[C@H]2O)[C@](C)(OC)C[C@@H](C)C(=O)[C@H](C)[C@H]2NC(=O)O[C@@]21C [Example 9, 11,12-Carbamate-11,12-dideoxy-4″-O-(3-diethylamino-propionyl)-6-O-methyl-erythromycin A] | 412 |  |  |  |  |  |  |  |  |  |  |  | 
3 | CC[C@H]1OC(=O)[C@H](C)[C@@H](O[C@H]2C[C@@](C)(OC)[C@@H](OC(=O)CCN(C)C)[C@H](C)O2)[C@H](C)[C@@H](O[C@@H]2O[C@H](C)C[C@H](N(C)C)[C@H]2O)[C@](C)(OC)C[C@@H](C)C(=O)N[C@H](C)[C@@H](O)[C@]1(C)O [Example 12, 4″-O-(3-dimethylamino-propionyl)-6-O-methyl-9a-aza-9a-homoerythromycin A] |  | 46 | 88 | 87 | 45 |  |  |  |  |  |  |  | 
4 | CC[C@H]1OC(=O)[C@H](C)[C@@H](O[C@H]2C[C@@](C)(OC)[C@@H](OC(=O)CCN(CC)CC)[C@H](C)O2)[C@H](C)[C@@H](O[C@@H]2O[C@H](C)C[C@H](N(C)C)[C@H]2O)[C@](C)(O)C[C@@H](C)CN(C)[C@H](C)[C@@H](O)[C@]1(C)O [Example 48, 4″-O-(3-diethylamino-propionyl)-azithromycin] | 125 | 66 | 79 | 85 | 9 |  |  |  |  |  |  |  | 
5 | CC[C@H]1OC(=O)[C@H](C)C(O[C@H]2C[C@@](C)(OC)[C@@H](OC(=O)CCN(CC)CC)[C@H](C)O2)[C@H](C)[C@@H](O[C@@H]2O[C@H](C)C[C@H](N(C)C)[C@H]2O)[C@](C)(OC)C[C@@H](C)C(=O)[C@H](C)[C@H](O)[C@]1(C)O (some centres unmarked) [Example 49, 4″-O-(3-Diethylamino-propionyl)-6-O-methylerithromycin A] | >600 |  |  |  |  | 51 | 100 | 59 | 81 | 10 | 51 | 47 | 72
6 | CC[C@H]1OC(=O)[C@H](C)[C@@H](O[C@H]2C[C@@](C)(OC)[C@@H](OC(=O)CCN(CC)CC)[C@H](C)O2)[C@H](C)[C@@H](O[C@@H]2O[C@H](C)C[C@H](NC)[C@H]2O)[C@](C)(OC)C[C@@H](C)C(=O)N[C@H](C)[C@@H](O)[C@]1(C)O [Example 54, 3′-N-Demethyl-4″-O-(3-diethylaminopropionyl)-6-O-methyl-9a-aza-9a-homoerythromycin A] |  | 70 | 90 | 100 | 100 |  |  |  |  |  |  |  | 
7 | CC[C@H]1OC(=O)[C@H](C)[C@@H](O[C@H]2C[C@@](C)(OC)[C@@H](O)[C@H](C)O2)[C@H](C)[C@@H](O[C@@H]2O[C@H](C)C[C@H](N(C)C)[C@H]2O)[C@](C)(OC)C[C@@H](C)C(=O)[C@H](C)[C@@H](O)[C@]1(C)O [clarithromycin, reference compound] |  | 36 | 77 | 78 | 60 | 0 | 3 | 13 | 47 |  |  |  | 
